US9260461B2, “Water-soluble derivatives and prodrugs of acacetin and methods of making and using thereof” (Versitech Limited, priority 2014, dated 2016)

What was measured:
[1] = system: myocardial infarction induced by ischemia-reperfusion; experiment: Ventricular infarct area (TTC staining) in anesthetized rats with ischemia-reperfusion; assay type: in vivo; settings: 10 mg/kg i.v.; n=4, P<0.01 vs vehicle
[2] = In vivo conversion of prodrugs to acacetin, HPLC of blood samples from anesthetized rats; set-up: species or system SD rats
Description: Male SD rats (250-300 g) was anesthetized with phenobarbital (30 mg/kg, i.p.), and the jugular vein and femoral vein were cannulated for drug administration and blood sample collection. Tracheal cannulation was also performed for ventilation. Drug (20 mg/kg) was administrated for 30-60 min, and blood samples (˜0.2 mL) were collected before and at 5, 15, 30, 60, 90, and 120 min after drug administration using ascorbic acid and EDTA-preserved microcentrifuge tubes (1.5 mL) for HPLC (high-performance liquid chromatography) analysis of acacetin conversion.
The samples were stored in a −80° C. freezer until HPLC analysis for acacetin content. Except for the double blanks, pentamethylquercetin (500 ng/mL) was used for concentration calibration. The analysis was carried out on a Waters HPLC system (Milford, Mass.) equipped with an Alltech column (C18, 250 mm×4.6 mm i.d., 5 μm, Grace, Deerfield, Ill.). The mobile phase consisted of 45% acetonitrile in 1% of acetic acid. The UV detector was set at a single wavelength of 260 nm. The lower limit of quantification was 50 ng/mL.
The in vivo conversion of water-soluble prodrug A was determined in anesthetized SD rats. Prodrug A (20 mg/kg i.v.) was infused for 30-60 min, and levels of the parent compound acacetin in blood plasma were determined by HPLC analysis.

IKACh = target: T1, IKACh (Rattus norvegicus, UniProt P48548+P63251); experiment: Whole-cell patch-clamp, IKACh activated by 5 μM carbachol in rat atrial myocytes; assay type: cell-based; settings: 30 μM, representative cells
T1 construct: from tissue; host or cells: freshly isolated left atrial myocytes of SD rats
T1 sequence (P63251 1-501): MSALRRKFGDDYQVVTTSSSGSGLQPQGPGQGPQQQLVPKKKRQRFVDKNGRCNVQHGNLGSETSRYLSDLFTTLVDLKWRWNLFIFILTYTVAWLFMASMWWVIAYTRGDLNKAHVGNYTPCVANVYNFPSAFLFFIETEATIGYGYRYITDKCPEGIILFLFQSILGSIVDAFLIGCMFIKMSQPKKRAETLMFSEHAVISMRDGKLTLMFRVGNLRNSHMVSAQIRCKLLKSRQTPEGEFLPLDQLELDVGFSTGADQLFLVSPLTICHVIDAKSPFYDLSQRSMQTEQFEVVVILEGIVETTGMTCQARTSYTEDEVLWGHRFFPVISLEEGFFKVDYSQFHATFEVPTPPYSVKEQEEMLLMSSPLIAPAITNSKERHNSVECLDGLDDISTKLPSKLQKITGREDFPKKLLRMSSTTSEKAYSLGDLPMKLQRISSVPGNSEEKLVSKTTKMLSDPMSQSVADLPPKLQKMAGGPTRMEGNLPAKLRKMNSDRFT
T1 sequence (P48548 1-419): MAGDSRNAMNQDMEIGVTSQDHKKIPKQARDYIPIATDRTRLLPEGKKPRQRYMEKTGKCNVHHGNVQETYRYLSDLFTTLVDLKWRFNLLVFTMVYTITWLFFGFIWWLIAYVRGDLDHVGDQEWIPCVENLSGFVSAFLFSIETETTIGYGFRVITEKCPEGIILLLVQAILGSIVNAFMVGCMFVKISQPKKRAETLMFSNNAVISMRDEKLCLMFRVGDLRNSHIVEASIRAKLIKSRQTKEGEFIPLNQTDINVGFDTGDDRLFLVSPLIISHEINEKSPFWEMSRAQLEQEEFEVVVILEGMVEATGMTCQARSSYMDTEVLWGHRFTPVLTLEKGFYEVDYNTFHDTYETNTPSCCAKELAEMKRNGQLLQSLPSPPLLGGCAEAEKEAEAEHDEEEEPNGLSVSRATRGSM
Description: Rat atrial myocytes were prepared with the procedure described previously (Li et al., 2002) with a slight modification. Briefly, After SD rats (250-300 g) were anesthetized with pentobarbital (30 mg/kg i.p.), the heart was mounted to a Langendorff heart perfusion apparatus via the aorta and perfused with HEPES-buffered Tyrode's solution at 37° C. gassed with 100% 02 for 5 min. The heart was perfused with Ca^2+-free Tyrode's solution for 5-8 min, followed by Ca^2+-free Tyrode's solution containing 0.06% collagenase (Type II, Worthington Biochemical, Lakewood, N.J., USA) and 0.1% bovine serum albumin (Sigma). When the heart became softened the left atrium was excised and placed in a high-K storage medium at room temperature for 2 h, and then used for electrophysiological recording (Li et al., 2002).
Ionic currents in HEK 293 cell lines and rat atrial myocytes were measured by the standard whole-cell patch-clamp technique using a standard pipette and bath solution with an EPC-10 amplifier and Pulse software (HEKA, Lambrecht, Germany). A 3M KCl-agar salt bridge was used as the reference electrode. The current signal was sampled at 5 kHz, recorded and stored in the hard disk of an IBM compatible computer. All experiments were conducted at room temperature (22-23° C.). […]

With `COc1ccc(-c2cc(=O)c3c(O)cc(OP(=O)(O)O)cc3o2)cc1` [Prodrug A] the ventricular infarct area [1] was “reduced”, the “concentrations of acacetin at different time-points after prodrug administration” value [2] was “can reach therapeutic concentrations” and the “effect on IKACh” value (IKACh) was “no inhibitory effect”.
